Source: patent US10772934B2 (Longevity Biotech, Inc., priority 2010, dated 2020)
No end group written: not given here.

What was measured:
VIPR1 = biological target: T1, VIPR1 (Homo sapiens, UniProt P32241); assay: cAMP Hunter cell line functional assay, agonist mode (DiscoveRx HitHunter cAMP XS+); type: cell-based; conditions: for Mean RLU: Cell Line VIPR1, Mode Agonist, Readout cAMP
T1 sequence (P32241 31-457): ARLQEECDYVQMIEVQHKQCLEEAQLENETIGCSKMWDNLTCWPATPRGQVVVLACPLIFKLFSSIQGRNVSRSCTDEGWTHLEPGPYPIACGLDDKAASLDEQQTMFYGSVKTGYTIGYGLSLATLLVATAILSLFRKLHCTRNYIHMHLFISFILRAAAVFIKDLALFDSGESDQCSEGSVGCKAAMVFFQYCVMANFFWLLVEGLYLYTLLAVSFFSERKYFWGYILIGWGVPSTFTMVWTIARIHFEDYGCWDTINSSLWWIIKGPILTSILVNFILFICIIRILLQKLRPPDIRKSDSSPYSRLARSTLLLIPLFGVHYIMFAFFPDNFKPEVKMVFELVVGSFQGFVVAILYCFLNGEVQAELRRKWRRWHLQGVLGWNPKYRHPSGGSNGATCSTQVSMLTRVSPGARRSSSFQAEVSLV
Protocol: (§1) Once it was established that the cells were healthy and growing normally, cells were passaged from flasks using cell dissociation reagent buffer and seeded into white walled clear bottom 384-well microplates for compound profiling. For profiling, cells were seeded at a density of 10,000 cells per well in a total volume of 20 μL and were allowed to adhere and recover overnight prior to compound addition. cAMP modulation was determined using the DiscoveRx HitHunter cAMP XS+ assay.
(§2) For profiling compound in agonist mode, the cells were incubated in the presence of compound at 37° C. for 30 minutes. […] After appropriate compound incubation, assay signal was generated through incubation with DiscoverX lysis cocktail according to the manufacturers standard protocol. Dose curves were plotted using GraphPad Prism or Activity Base. Percentage activity is calculated using the following formula: % Activity=100%×(mean RLU of test sample−mean RLU of vehicle control)/(mean RLU of MAX control−mean RLU of vehicle control).

VIPR2 = biological target: T2, VIPR2 (Homo sapiens, UniProt P41587); assay: as above; type: cell-based; conditions: for Mean RLU: Cell Line VIPR2, Mode Agonist, Readout cAMP
T2 construct: host or cells: cAMP Hunter cell lines (CHO-K1 is named only in the prophetic assay)
T2 sequence (P41587 24-438): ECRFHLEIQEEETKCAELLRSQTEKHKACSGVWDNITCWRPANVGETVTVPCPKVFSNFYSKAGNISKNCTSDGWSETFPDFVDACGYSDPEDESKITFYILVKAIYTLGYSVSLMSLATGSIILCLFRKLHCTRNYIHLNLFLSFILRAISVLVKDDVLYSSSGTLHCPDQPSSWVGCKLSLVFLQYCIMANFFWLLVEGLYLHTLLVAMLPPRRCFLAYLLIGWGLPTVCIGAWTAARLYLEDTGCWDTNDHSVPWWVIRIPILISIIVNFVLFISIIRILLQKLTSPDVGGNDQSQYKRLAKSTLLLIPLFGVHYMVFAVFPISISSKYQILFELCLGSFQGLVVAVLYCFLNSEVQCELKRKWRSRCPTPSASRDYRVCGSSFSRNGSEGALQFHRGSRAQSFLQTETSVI
Protocol: as §1, §2

[1] = in the blood stream; cited from earlier work
calcitonin (CT) receptor = conditions: cited from earlier work
[2] = biological target: calcitonin-gene related peptide (CGRP) receptors (Homo sapiens, UniProt O60894+Q16602); conditions: cited from earlier work
calcitonin-gene related peptide (CGRP) receptors, sequence (Q16602 23-461): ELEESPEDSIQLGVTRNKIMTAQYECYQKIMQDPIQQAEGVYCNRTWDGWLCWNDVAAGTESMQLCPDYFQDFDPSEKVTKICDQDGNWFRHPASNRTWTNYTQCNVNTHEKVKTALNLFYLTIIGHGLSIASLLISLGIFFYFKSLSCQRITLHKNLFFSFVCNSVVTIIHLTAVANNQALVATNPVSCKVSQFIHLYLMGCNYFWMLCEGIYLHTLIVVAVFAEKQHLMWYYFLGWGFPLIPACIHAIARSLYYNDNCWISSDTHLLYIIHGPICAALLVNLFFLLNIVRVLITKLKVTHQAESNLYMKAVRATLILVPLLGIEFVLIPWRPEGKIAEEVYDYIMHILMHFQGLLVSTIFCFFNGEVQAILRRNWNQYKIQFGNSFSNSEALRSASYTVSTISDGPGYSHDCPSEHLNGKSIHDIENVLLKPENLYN
calcitonin-gene related peptide (CGRP) receptors, sequence (O60894 27-148 partner): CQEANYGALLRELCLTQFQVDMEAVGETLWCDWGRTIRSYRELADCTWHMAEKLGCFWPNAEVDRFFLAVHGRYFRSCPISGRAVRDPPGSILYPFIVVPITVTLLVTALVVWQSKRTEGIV

adrenomedullin receptors = adrenomedullin receptors (Homo sapiens, UniProt Q16602); conditions: cited from earlier work
adrenomedullin receptors, sequence (Q16602 23-461): as the sequence (Q16602 23-461) above

G-actin monomers = conditions: 1:1 ratio; read-out: Kd, sequestration of G-actin monomers; cited from earlier work
Glucagon receptor = biological target: T3, Glucagon receptor (Rattus norvegicus, UniProt P30082); conditions: cited from earlier work
T3 construct: from tissue; host or cells: rat liver membranes
T3 sequence (P30082 27-485): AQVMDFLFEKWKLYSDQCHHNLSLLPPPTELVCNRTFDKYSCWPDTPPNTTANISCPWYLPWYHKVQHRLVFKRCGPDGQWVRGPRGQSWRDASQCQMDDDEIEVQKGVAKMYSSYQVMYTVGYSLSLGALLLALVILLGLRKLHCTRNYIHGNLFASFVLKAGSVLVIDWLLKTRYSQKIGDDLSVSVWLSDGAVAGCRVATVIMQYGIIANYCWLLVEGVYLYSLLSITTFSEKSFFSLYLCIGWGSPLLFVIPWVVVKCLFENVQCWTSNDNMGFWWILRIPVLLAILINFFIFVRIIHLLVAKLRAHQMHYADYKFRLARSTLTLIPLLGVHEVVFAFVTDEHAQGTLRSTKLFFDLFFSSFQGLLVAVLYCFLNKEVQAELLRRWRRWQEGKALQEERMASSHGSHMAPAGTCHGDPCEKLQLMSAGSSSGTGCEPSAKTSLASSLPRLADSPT

[3] = test system: vasoactive intestinal peptide (VIP); conditions: read-out: IC50, selective VIP antagonist; cited from earlier work
glucagon receptors = glucagon receptors (Homo sapiens, UniProt P47871); conditions: cited from earlier work
glucagon receptors, sequence (P47871 26-477): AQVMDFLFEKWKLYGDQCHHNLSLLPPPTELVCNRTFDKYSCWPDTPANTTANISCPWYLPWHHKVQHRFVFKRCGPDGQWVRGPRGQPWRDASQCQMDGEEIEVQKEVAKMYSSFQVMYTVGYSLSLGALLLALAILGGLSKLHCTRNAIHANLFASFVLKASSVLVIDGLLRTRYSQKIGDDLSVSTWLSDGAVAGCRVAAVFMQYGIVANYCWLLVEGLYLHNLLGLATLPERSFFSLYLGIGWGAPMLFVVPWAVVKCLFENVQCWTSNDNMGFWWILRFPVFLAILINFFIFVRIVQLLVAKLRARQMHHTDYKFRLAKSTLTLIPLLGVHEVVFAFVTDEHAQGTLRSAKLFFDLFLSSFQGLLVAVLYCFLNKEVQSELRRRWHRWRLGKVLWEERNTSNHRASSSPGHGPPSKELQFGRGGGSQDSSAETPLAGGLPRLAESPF

secretin receptors = secretin receptors (Homo sapiens, UniProt P47872); conditions: cited from earlier work
secretin receptors, sequence (P47872 23-440): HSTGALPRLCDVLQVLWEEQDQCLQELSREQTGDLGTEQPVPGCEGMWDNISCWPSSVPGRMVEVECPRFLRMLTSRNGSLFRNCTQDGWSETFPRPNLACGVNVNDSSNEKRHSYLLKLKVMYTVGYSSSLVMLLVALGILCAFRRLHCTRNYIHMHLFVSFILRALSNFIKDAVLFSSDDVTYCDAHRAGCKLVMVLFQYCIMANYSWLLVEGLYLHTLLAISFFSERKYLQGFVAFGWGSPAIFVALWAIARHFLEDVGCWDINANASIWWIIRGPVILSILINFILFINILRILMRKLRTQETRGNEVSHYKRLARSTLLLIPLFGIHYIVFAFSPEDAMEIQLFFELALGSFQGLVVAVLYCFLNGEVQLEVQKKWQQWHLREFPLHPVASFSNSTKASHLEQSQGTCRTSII

GRF receptors = biological target: T4, GRF receptors (Homo sapiens, UniProt Q02643); conditions: cited from earlier work
T4 sequence (Q02643 23-423): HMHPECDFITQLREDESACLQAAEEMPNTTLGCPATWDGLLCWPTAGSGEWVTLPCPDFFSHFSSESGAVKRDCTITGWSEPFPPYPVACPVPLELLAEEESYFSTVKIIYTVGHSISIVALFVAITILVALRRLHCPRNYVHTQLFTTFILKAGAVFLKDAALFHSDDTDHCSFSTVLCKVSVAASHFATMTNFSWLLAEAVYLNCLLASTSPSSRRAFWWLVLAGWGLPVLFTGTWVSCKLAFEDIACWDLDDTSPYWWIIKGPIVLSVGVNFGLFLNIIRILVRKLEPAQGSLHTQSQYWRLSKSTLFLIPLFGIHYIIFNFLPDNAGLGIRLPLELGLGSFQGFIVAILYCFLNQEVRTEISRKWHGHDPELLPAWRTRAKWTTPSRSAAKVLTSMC

## CC[C@H](C)[C@H](NC(=O)[C@H]1CCC[C@@H]1NC(=O)[C@H](CC(N)=O)NC(=O)[C@H](CC(C)C)NC(=O)[C@H](Cc1ccc(O)cc1)NC(=O)[C@H]1CNC[C@@H]1NC(=O)[C@H](CCCCN)NC(=O)[C@@H](NC(=O)[C@H]1CCC[C@@H]1NC(=O)[C@H](CC(C)C)NC(=O)[C@H](CCC(N)=O)NC(=O)[C@H](CCCCN)NC(=O)[C@H]1CNC[C@@H]1NC(=O)[C@H](CC(C)C)NC(=O)[C@H](CCCNC(=N)N)NC(=O)[C@H]1CCC[C@@H]1NC(=O)[C@H](Cc1ccc(O)cc1)NC(=O)[C@H](CC(N)=O)NC(=O)[C@H](CC(=O)O)NC(=O)[C@@H](NC(=O)[C@H](Cc1ccccc1)NC(=O)[C@@H](NC(=O)[C@H](C)NC(=O)[C@H](CC(=O)O)NC(=O)[C@H](CO)NC(=O)[C@@H](N)Cc1c[nH]cn1)C(C)C)[C@@H](C)O)C(C)C)C(=O)N[C@@H](CC(C)C)C(=O)NC(CC(N)=O)CC(N)=O [Compound 8, HSDAVFTDNYXRLZKQLXVKZYLNXILN]
VIPR1; [Compound] 1.00E−08 M
  Mean RLU: 13700.0 RLU
VIPR1; [Compound] 1.00E−09 M
  Mean RLU: 10600.0 RLU
VIPR1; [Compound] 1.00E−10 M
  Mean RLU: 9060.0 RLU
VIPR1; [Compound] 1.00E−11 M
  Mean RLU: 10500.0 RLU
VIPR1; [Compound] 1.00E−12 M
  Mean RLU: 10340.0 RLU
VIPR1; [Compound] 5.00E−08 M
  Mean RLU: 95460.0 RLU
VIPR1; [Compound] 5.00E−09 M
  Mean RLU: 13200.0 RLU
VIPR1; [Compound] 5.00E−10 M
  Mean RLU: 9820.0 RLU
VIPR1; agonist mode, FIG. 3
  activation of VIPR1: fully activate
VIPR2; [Compound] 1.00E−07 M
  Mean RLU: 8920.0 RLU
VIPR2; [Compound] 1.00E−08 M
  Mean RLU: 9560.0 RLU
VIPR2; [Compound] 1.00E−09 M
  Mean RLU: 8560.0 RLU
VIPR2; [Compound] 1.00E−10 M
  Mean RLU: 7560.0 RLU
VIPR2; [Compound] 1.00E−11 M
  Mean RLU: 9280.0 RLU
VIPR2; [Compound] 1.00E−12 M
  Mean RLU: 8300.0 RLU
VIPR2; [Compound] 5.00E−07 M
  Mean RLU: 10200.0 RLU
VIPR2; [Compound] 5.00E−08 M
  Mean RLU: 9200.0 RLU
VIPR2; [Compound] 5.00E−09 M
  Mean RLU: 8560.0 RLU
VIPR2; [Compound] 5.00E−10 M
  Mean RLU: 9820.0 RLU
VIPR2; agonist mode
  interaction with VIPR2: does not interact substantially
VIPR2; agonist mode, FIG. 3
  activation of VIPR2: not activate

## CC[C@H](C)[C@H](NC(=O)[C@H](CO)NC(=O)[C@H](CC(N)=O)NC(=O)[C@H](CC(C)C)NC(=O)[C@H](Cc1ccc(O)cc1)NC(=O)[C@H](CCCCN)NC(=O)[C@H](CCCCN)NC(=O)[C@@H](NC(=O)[C@H](C)NC(=O)[C@H](CCSC)NC(=O)[C@H](CCC(N)=O)NC(=O)[C@H](CCCCN)NC(=O)[C@H](CCCN=C(N)N)NC(=O)[C@H](CC(C)C)NC(=O)[C@H](CCCN=C(N)N)NC(=O)[C@@H](NC(=O)[C@H](Cc1ccc(O)cc1)NC(=O)[C@H](CC(N)=O)NC(=O)[C@H](CC(=O)O)NC(=O)[C@@H](NC(=O)[C@H](Cc1ccccc1)NC(=O)[C@@H](NC(=O)[C@H](C)NC(=O)[C@H](CC(=O)O)NC(=O)[C@H](CO)NC(=O)[C@@H](N)Cc1c[nH]cn1)C(C)C)[C@@H](C)O)[C@@H](C)O)C(C)C)C(=O)N[C@@H](CC(C)C)C(=O)N[C@@H](CC(N)=O)C(N)=O [VIP]
[1]
  half-life: about two

## Calcitoninreceptor-stimulating peptide-1 (SCNTATCMTHRLVGLLSRSGSMVRSNLLPTKMGFKVFG-NH2; ends and bridges not checked; UniProt Q862B1 81-118, looked up)
Calcitonin (CT) receptor; calcitonin (CT) receptor
  ED50, stimulation of cAMP formation: 0.2 nM
Calcitonin (CT) receptor; greater than CT
  Potency in stimulating cAMP formation relative to CT: 350 fold
[2]
  Activity at CGRP receptors: Displays no activity at calcitonin-gene related peptide (CGRP) and adrenomedullin
Adrenomedullin receptors
  Activity at adrenomedullin receptors: Displays no activity at calcitonin-gene related peptide (CGRP) and adrenomedullin

## Thymosin β4
G-actin monomers
  Kd: 700 to 1000 nM

## des-His1-{Glu9}-Glucagon (1-29) amide
Glucagon receptor
  Agonist activity at the glucagon receptor: adenylyl cyclase activation in rat liver membranes); displays no agonist activity.
Glucagon receptor; rat liver membranes
  pA2 for inhibition of glucagon-induced adenylyl cyclase activation: (Glucagon receptor antagonist (pA2 = 7.2 for inhibition of glucagon-induced

## {D-p-Cl-Phe6,Leu17}-VIP
[3]
  IC50: 126 nM
Glucagon receptors
  Activity on glucagon receptors: Displays no activity on glucagon, secretin or GRF receptors.)
Secretin receptors
  Activity on secretin receptors: Displays no activity on glucagon, secretin or GRF receptors.)
GRF receptors
  Activity on GRF receptors: Displays no activity on glucagon, secretin or GRF receptors.)
